Source: patent US20250345370A1, “MICROBIAL LIBERATION OF N-METHYLSEROTONIN FROM ORANGE FIBER” (Washington University, priority 2022, published 2025)
Read-outs that look alike come from different tables or passages of the source.

Key:
[1] = for 2-methylserotonin remaining: 200 ng spike-in
rat hepatocytes = conditions: cited from earlier work
[2] = Human studies with pea and orange fiber snack prototypes: fecal N-methylserotonin and serotonin levels; format: in vivo; conditions: in vivo
Protocol: Human studies with pea and orange fiber snack prototypes. Two separate open-label, single group assignment studies were performed involving members of the Missouri Adolescent Female Twin Study (MOAFTS) cohort who were age 31-45 years at the time of enrollment. The first study with the pea fiber snack was performed between April and August 2017, while the second study with the orange fiber snack was conducted between August and December 2017. All participants provided written informed consent and the studies were approved by the Washington University Institutional Review Board (IRB ID #201611122). (ClinicalTrials.gov NCT03078283).
The design of the two studies were identical except for the fiber snack supplement used and the number of participants in each study. Individuals who were pregnant or trying to get pregnant, had inflammatory bowel disease, gastrointestinal cancer, hepatitis, HIV, renal failure, or allergies to dairy, eggs, fish, crustacean shellfish, tree nuts, sesame seeds, peanuts, wheat, gluten, soybeans, celery, or mustard were excluded from the study. In Study 1, four twin pairs were concordant for obesity (BMI>30 kg/m2) while five pairs were discordant with one member being obese and the other non-obese (n=18 participants, […] (mean±SD); Table S8B). Study 2 involved 24 participants: 12 dizygotic twin pairs [37±2.9 years (mean±SD)], nine of whom had participated in the pea fiber study; for these nine pairs, the interval between cessation of pea fiber snack consumption and initiation of orange fiber consumption ranged from 50 to 106 days [84+26 days (mean±SD)]. Participants consumed their normal, unrestricted diet for the first two weeks of the study (pre-intervention phase). At the beginning of week three, they supplemented their diets with one 35 g fiber snack serving a day for one week, then two 35 g snack servings a day the following week, and thereafter, three 35 g snacks per day for four weeks (weeks 5-8) at breakfast, lunch and dinner. No attempt was made to adjust the diets of participants other than supplementation with the fiber snack. Snack prototypes were manufactured by Mondeldz International, Inc. (see Table S8A for their composition), which participants received in weekly shipments from the study center. The pea fiber snacks were in the form of rotary biscuits (6.7 g total fiber/35 g snack) or extruded bars (8.1 g fiber/35 g snack) with participants having the option to alternate between them. The orange fiber snacks were all in the form of extruded bars (10.2 g total fiber/35 g snack). Compliance was monitored throughout by the study coordinator through weekly phone calls. The primary outcomes for each study were the effects of the respective prototypes on gut microbial community structure and function.
Fecal samples were collected by participants in small medically approved collection containers. Each fecal sample was frozen immediately at −20° C. and temporarily stored in dedicated freezers provided to participants at the beginning of the study. Within 12-48 hours after collection, all samples were shipped, via overnight delivery, in an insulated container containing frozen gel packs, to a biospecimen repository located in Washington University in St. Louis and overseen by one of the authors (A.C.H.). Once received, samples were stored at −80° C. until processing for LC-QqQ-MS analysis of N-methylserotonin levels and culture-independent characterization of ASV and CAZyme gene abundances.
Measurement of fecal N-methylserotonin levels—Each fecal sample was homogenized with a porcelain mortar (4 L) and pestle while submerged in liquid nitrogen; multiple 500 mg aliquots of the pulverized frozen material were stored at −80° C. N-methylserotonin was quantified using the same protocol that was employed for mouse fecal samples (as described herein elsewhere).
N-methylserotonin levels and microbiome CAZyme gene abundances in humans consuming fiber snack prototypes. […]

[3] = In vitro screening of bacterial strains for N-methylserotonin releasing activity from orange fiber; format: cell-based, human gut bacterial strains; conditions: for N-methylserotonin released, MEGA Medium 2.0 72 hrs / N-methylserotonin released, TYG medium 8 hrs / N-methylserotonin released, TYG medium 24 hrs / N-methylserotonin released, TYG medium 48 hrs / N-methylserotonin released, TYG medium 72 hrs / N-methylserotonin released, Wilkins-Chalgren 72 hrs: 5 mg/ml orange fiber, normalized to 10^6 microbes, n=3
Protocol: In vitro screening of bacterial strains for N-methylserotonin releasing activity. A given bacterial strain was grown in monoculture at 37° C. in TYG medium in an anaerobic chamber (atmosphere; 75% N2, 20% CO2 and 5% H2) to stationary phase. An aliquot was then added to 10 mL of fresh TYG medium with or without 50 mg of orange fiber that had been sterilized by gamma irradiation (30-50 KGy); the mixture was incubated under anaerobic conditions without shaking for 72 hours. A 200 μL aliquot was then removed for targeted LC-QqQ-MS measurement of N-methylserotonin levels; another aliquot was used to define the number of colony-forming units so that levels of the analyte were expressed per 10^6 cells. An identical protocol was used to compare the amount of N-methylserotonin released when two other rich media, MEGA medium 2.0 and Wilkins-Chalgren anaerobe broth (Thermo-Fisher), were used in lieu of TYG. All incubations were performed in triplicate for each condition. […]
Bacterial strains capable of mining of N-methylserotonin from orange fiber in vitro. Given that detection of N-methylserotonin was dependent on colonization with the bacterial consortium and consumption of orange fiber, it was next investigated which community members were responsible for its appearance. Each of the 14 community members was grown in monoculture to stationary phase in TYG medium; 10^5 cells of each organism were incubated in 10 mL of a 5 mg/mL suspension of orange fiber for 8, 24, 48, 72 and 168 hours. N-methylserotonin was quantified using targeted LC-QqQ-MS. […] At this time point, Bacteroides ovatus strain TSDC 17.2 and a strain of Parabacteroides distasonis yielded similar quantities of product (29±1 and 24±2 ng N-methylserotonin/10^6 cells, respectively). In contrast, the 12 other strains yielded<1.5 ng/10^6 cells—an amount that was not appreciably higher than background levels (triplicate incubations/organism; FIG. 1C). […]

[4] = Release of N-methylserotonin from orange fiber by commercially available glycoside hydrolase preparations; format: biochemical
Protocol: Enzymatic screening of citrus & plant samples. All enzymatic assays are carried out using a total volume of 10 ml in water, 50 mg of plant fiber material tested and 700 active units of the same cellulase enzyme mixture (Sigma) as described herein. Samples were processed based on their condition, divided as follows. Citrus fibers sourced from various citrus types, described in Table S9 as “Ground,” are added directly to the enzymatic assay, while citrus fibers described as either “Granule” or “Whole” are first manually pulverized into a fine powder via mortar and pestle. The commercially available fiber source is classified as “Ground” if it was already processed into fine powder, or otherwise small enough granules in which individual pieces cannot be manually picked up via forceps. The commercially available fiber source is classified as “Granule” or “Whole” if individual fragments or pieces of the fiber is readily discernable, where “Granule” are applied to visibly uniform samples and “Whole” applied to all other samples. […]
Identifying genes involved in release of N-methylserotonin from orange fiber. […] When orange fiber (50 mg) was subjected to repeated rounds of extraction with methanol, small quantities of N-methylserotonin were released after each round (31 ng after two rounds; 171 ng in total after 15 rounds; Table S4F). […]

[5] = Control experiments of bacterial N-methylserotonin release (heat-killed cells, conditioned media, lysates); format: cell-based, human gut bacterial strains
Protocol: Experiments seeking to test the necessity of having live bacteria to extract N-methylserotonin were carried out by first incubating monocultures of B. ovatus, B. finegoldii, […] conditions to stationary phase. The stationary phase culture was then treated at 70° C. for 1 hour. […]
Experiments using conditioned media were carried out by taking monocultures of B. ovatus, B. finegoldii, P. distasonis, […], centrifuging the culture for […]
Experiments using bacterial lysates were carried out by bead-beating of bacterial cells, collected by centrifugation from 10 mL stationary phase TYG cultures for 4 minutes at room temperature; 500 μL of the […] To ensure sterility in these experiments, aliquots of the heat-treated cells, centrifuged conditioned media, or bacterial lysate were cultured in TYG medium for 7 days and subsequently plated on TYG-agar; the results confirmed the absence of colony forming units. Assays were performed in triplicate for each experimental condition.
These experiments indicate that mining requires intact viable cells.

Cc1[nH]c2ccc(O)cc2c1CCN [2-methylserotonin, reference compound]
2-methylserotonin remaining ([1]; Extraction 1): 190 ng | 2-methylserotonin remaining ([1]; Extraction 2): 10 ng | 2-methylserotonin remaining ([1]; Extraction 3): 0 ng | 2-methylserotonin remaining ([1]; Extraction 4): 0 ng | 2-methylserotonin remaining ([1]; Extraction 5): 0 ng | 2-methylserotonin remaining ([1]; Extraction 6): 0 ng | 2-methylserotonin remaining ([1]; Extraction 7): 0 ng | 2-methylserotonin remaining ([1]; Extraction 8): 0 ng | 2-methylserotonin remaining ([1]; Extraction 9): 0 ng | 2-methylserotonin remaining ([1]; Extraction 10): 0 ng | 2-methylserotonin remaining ([1]; Extraction 11): 0 ng | 2-methylserotonin remaining ([1]; Extraction 12): 0 ng | 2-methylserotonin remaining ([1]; Extraction 13): 0 ng | 2-methylserotonin remaining ([1]; Extraction 14): 0 ng | 2-methylserotonin remaining ([1]; Extraction 15): 0 ng | 2-methylserotonin removed by the first cycle of extraction ([1]; methanol, spike-in added to orange fiber): 95%

CC(N)Cc1c[nH]c2ccc(O)cc12 (stereo not drawn) [alpha-methylserotonin]
glycogen synthesis (rat hepatocytes): able to increase glycogen synthesis

NCCc1c[nH]c2ccc(O)cc12 [serotonin]
fecal serotonin levels ([2]; female, human): 7 ± 5.7 µM | fecal serotonin levels as % of that of N-methylserotonin [2]: 0-8.6% | glycogen synthesis (rat hepatocytes): decreases glycogen synthesis

Bacteroides cellulosilyticus
N-methylserotonin released, MEGA Medium 2.0 72 hrs [3]: 1.0 ± 0.2 ng | N-methylserotonin released, TYG medium 8 hrs [3]: 0.3 ± 0.1 ng | N-methylserotonin released, TYG medium 24 hrs [3]: 0.3 ± 0.1 ng | N-methylserotonin released, TYG medium 48 hrs [3]: 0.6 ± 0.1 ng | N-methylserotonin released, TYG medium 72 hrs [3]: 0.9 ± 0.2 ng | N-methylserotonin released, Wilkins-Chalgren 72 hrs [3]: 1 ± 0.2 ng

Cellulase
N-methylserotonin levels at 72 h ([4]; 50 mg orange fiber incubated with enzyme): 2727.9 ± 25.5 ng | total yield of N-methylserotonin ([4]; orange fiber incubated with enzyme preparation): 2728±26 ng/50 mg orange fiber

Parabacteroides distasonis
N-methylserotonin released, MEGA Medium 2.0 72 hrs [3]: 24.8 ± 2.1 ng | N-methylserotonin released, TYG medium 8 hrs [3]: 0.3 ± 0.1 ng | N-methylserotonin released, TYG medium 24 hrs [3]: 1.0 ± 0.1 ng | N-methylserotonin released, TYG medium 48 hrs [3]: 7.5 ± 0.7 ng | N-methylserotonin released, TYG medium 72 hrs [3]: 24.3 ± 2.4 ng | N-methylserotonin released, Wilkins-Chalgren 72 hrs [3]: 22.1 ± 0.7 ng | N-methylserotonin yielded at the 72-hour time point ([3]; TYG, 5 mg/mL orange fiber, triplicate): 24±2 ng N-methylserotonin/10^6 cells | N-methylserotonin levels, Cellular extract ([5]; Mega 2.0 (+orange fiber)): 0.3 ± 0.1 ng | N-methylserotonin levels, Conditioned media ([5]; Mega 2.0 (+orange fiber)): 0.3 ± 0.1 ng | N-methylserotonin levels, Heat inactivated ([5]; Mega 2.0 (+orange fiber)): 0.4 ± 0.1 ng | N-methylserotonin levels, Cellular extract ([5]; Mega 2.0, no orange fiber): ND (ND (not detected)=N-methylserotonin levels below 0.02 ng) | N-methylserotonin levels, Conditioned media ([5]; Mega 2.0, no orange fiber): ND (ND (not detected)=N-methylserotonin levels below 0.02 ng) | N-methylserotonin levels, Heat inactivated ([5]; Mega 2.0, no orange fiber): ND (ND (not detected)=N-methylserotonin levels below 0.02 ng) | N-methylserotonin levels, Cellular extract ([5]; TYG (+orange fiber)): 0.2 ± 0.1 ng | N-methylserotonin levels, Conditioned media ([5]; TYG (+orange fiber)): 0.3 ± 0.1 ng | N-methylserotonin levels, Heat inactivated ([5]; TYG (+orange fiber)): 0.3 ± 0.1 ng | N-methylserotonin levels, Cellular extract ([5]; TYG, no orange fiber): ND (ND (not detected)=N-methylserotonin levels below 0.02 ng) | N-methylserotonin levels, Conditioned media ([5]; TYG, no orange fiber): ND (ND (not detected)=N-methylserotonin levels below 0.02 ng) | N-methylserotonin levels, Heat inactivated ([5]; TYG, no orange fiber): ND (ND (not detected)=N-methylserotonin levels below 0.02 ng) | N-methylserotonin levels with heat-killed cells, lysates or conditioned medium ([5]; fresh TYG with orange fiber, 72 hours): failed to yield levels of N-methylserotonin above background
